From US9180082B2, “Biotin-conjugated hexapeptide-2 derivative and use thereof” (INCOSPHARM CORPORATION, priority 2012, dated 2015)
Where a SMILES comes first, the peptide text is derived from it. [ ]: non-standard residue; d: D form. The star is where a group is joined. ξ: configuration not given here. Biotin = O=C1N[C@H]2[C@H](CS[C@H]2CCCCC(=O)*)N1; ξW = NC(Cc1c[nH]c2ccccc12)C(=O)O; ξH = NC(Cc1c[nH]cn1)C(=O)O; ξF = NC(Cc1ccccc1)C(=O)O; ξK = NCCCCC(N)C(=O)O; ξA = CC(N)C(=O)O

What was measured:
[1] = test system: type 1 collagen biosynthesis in fibroblasts; experiment: Type 1 collagen biosynthesis-promoting ability, ELISA of fibroblast culture supernatants; assay type: cell-based; details: supernatants of human dermal fibroblasts; dilutions of 200 uM, 20 uM and 2 uM, each 100 ul added to 100 ul medium; incubation 48 hours; FIG. 2
Method: The type 1 collagen produced was measured by ELISA assay to examine the effect of promoting collagen biosynthesis, and a control group with no sample added was considered as 100% to calculate the relative type 1 collagen production ability.
Thereafter, fibroblast culture supernatants described in Example 2 were treated to the 96-well plate coated with type 1 collagen antibodies, and reacted at room temperature for 2 hours. […] Reaction was stopped using 2 N hydrochloric acid, and absorbance was measured at 450 nm.

[2] = test system: Human normal fibroblasts (Human Dermal Fibroblast neonatal); experiment: Cytotoxicity test by MTT assay; assay type: cell-based; details: dilutions of 200 uM, 20 uM and 2 uM, each 100 ul added to 100 ul medium, incubation 48 hours, FIG. 1
Method: In order to examine cytotoxicity of the biotin-conjugated hexapeptide-2 peptide synthesized in Example 1, the following experiment was performed. Cytotoxicity was examined by MTT assay, and a control group with no sample added was considered as 100% to calculate relative cytotoxicity. The detailed experimental method is as follows. Human normal fibroblasts (Human Dermal Fibroblast neonatal) were seeded in a 96-well plate for cell culture at a density of 3,000 cells per well, and cultured in 10% FBS (Fetal bovine serum)-containing DMEM (Dulbecco's Modified Eagle Media, Gibco BRL) in a 37° C., 5% CO2 incubator for 24 hours. Each test material was dissolved in water at a concentration of 10 mM to prepare concentrates, and the concentrates were diluted with 0.5% FBS-containing DMEM at a concentration of 200 uM, 20 uM, and 2 uM. Then, each 100 ul of the diluted solutions was added to each well previously containing 100 ul of the medium, followed by incubation for 48 hours. After completing the cultivation, the supernatants were used to determine the amount of type 1 collagen produced (Example 3), and the cells were used to determine cytotoxicity. […] Thereafter, the supernatant was carefully removed, and MTT formazan precipitates in the cells were dissolved in 100 ul of DMSO to determine absorbance at OD570 using an ELISA reader.

## CC(NC(=O)C(Cc1c[nH]c2ccccc12)NC(=O)C(Cc1c[nH]cn1)NC(=O)CCCC[C@@H]1SC[C@@H]2NC(=O)N[C@@H]21)C(=O)NC(Cc1c[nH]c2ccccc12)C(=O)NC(Cc1ccccc1)C(=O)NC(CCCCN)C(N)=O (stereo partly drawn) [biotin-conjugated hexapeptide-2] (Biotin-[ξH][ξW][ξA][ξW][ξF][ξK]-NH2)
[1]
  type 1 collagen biosynthesis (ELISA, relative to control group with no sample added = 100%): significant increase

## O=C(O)CCCC[C@@H]1SC[C@@H]2NC(=O)N[C@@H]21 [biotin]
[1]
  type 1 collagen biosynthesis (ELISA, relative to control group with no sample added = 100%): no increase

## C[C@H](NC(=O)[C@@H](Cc1c[nH]c2ccccc12)NC(=O)[C@@H](N)Cc1c[nH]cn1)C(=O)N[C@@H](Cc1c[nH]c2ccccc12)C(=O)N[C@H](Cc1ccccc1)C(=O)N[C@@H](CCCCN)C(N)=O [hexapeptide-2, His-D-Trp-Ala-Trp-D-Phe-Lys-NH2] (H-H[dW]AW[dF]K-NH2)
[2]
  cytotoxicity (MTT assay, relative to control group with no sample added = 100%): no cytotoxicity
